{"source": "patent US11234437B2", "about": "(priority 2017, dated 2022)", "key": {"Fusarium culmorum [1]": {"test_system": "Fusarium culmorum", "assay": "whole plant or invertebrate", "type": "in vivo", "details": "in Triticum aestivum, read-out: control of Fusarium culmorum"}, "[2]": {"test_system": "Glomerella lagenarium (Colletotrichum lagenarium)", "assay": "Glomerella lagenarium (Colletotrichum lagenarium) / liquid culture (anthracnose)", "type": "cell-based", "details": "Colletotrichum orbiculare, compared to untreated control", "experimental": "(§1) Conidia of the fungus from cryogenic storage are directly mixed into nutrient broth (PDB potato dextrose broth). After placing a (DMSO) solution of test compound into a microtiter plate (96-well format), the nutrient broth containing the fungal spores is added. The test plates are incubated at 24° C. and the inhibition of growth is measured photometrically 3-4 days after application."}, "Sclerotinia sclerotiorum": {"test_system": "Sclerotinia sclerotiorum", "assay": "Sclerotinia sclerotiorum / liquid culture (cottony rot)", "type": "cell-based", "details": "compared to untreated control", "experimental": "Sclerotinia sclerotiorum/Liquid Culture (Cottony Rot)\nMycelia fragments of a newly grown liquid culture of the fungus are directly mixed into nutrient broth (Vogels broth). After placing a (DMSO) solution of test compound into a microtiter plate (96-well format) the nutrient broth containing the fungal material is added. The test plates are incubated at 24° C. and the inhibition of growth is determined photometrically 3-4 days after application."}, "[3]": {"test_system": "Magnaporthe grisea (Pyricularia oryzae)", "assay": "microbe, parasite or virus in culture", "type": "cell-based", "details": "read-out: control of Magnaporthe grisea"}, "[4]": {"test_system": "Gibberella zeae (Fusarium graminearum)", "assay": "whole plant or invertebrate", "type": "in vivo", "details": "in Triticum aestivum, read-out: control of Gibberella zeae"}, "[5]": {"test_system": "Monographella nivalis (Microdochium nivale)", "assay": "Monographella nivalis (Microdochium nivale) / liquid culture (foot rot cereals)", "type": "cell-based", "details": "compared to untreated control", "experimental": "Monographella nivalis (Microdochium nivale)/Liquid Culture (Foot Rot Cereals)\nas §1, with “determined” for “measured”, “4-5” for “3-4”"}, "Fusarium culmorum [6]": {"test_system": "Fusarium culmorum", "assay": "microbe, parasite or virus in culture", "type": "cell-based", "details": "read-out: control of Fusarium culmorum"}, "[7]": {"test_system": "Botryotinia fuckeliana (Botrytis cinerea)", "assay": "Botryotinia fuckeliana (Botrytis cinerea) / liquid culture (gray mould)", "type": "cell-based", "details": "compared to untreated control", "experimental": "Botryotinia fuckeliana (Botrytis cinerea)/Liquid Culture (Gray Mould)\nas §1, with “(Vogels” for “(PDB potato dextrose”, “determined” for “measured”"}}}
{"compound": "C=C(Cl)CC(C)(Cc1ccccc1)NC(=O)c1cnc2c(F)cccc2c1", "note": "(stereo not shown) [X.001]", "values": [{"measurement": "pest or weed control at 200 ppm", "setting": "Fusarium culmorum [1]", "value": "≥ 80", "unit": "%"}, {"measurement": "inhibition of growth at 200 ppm", "setting": "[2]", "value": "≥ 80", "unit": "%"}, {"measurement": "inhibition of growth at 20 ppm", "setting": "Sclerotinia sclerotiorum", "value": "≥ 80", "unit": "%"}, {"measurement": "melting point", "value": "56 to 59", "unit": "°C"}, {"measurement": "inhibition of growth at 20 ppm", "setting": "[3]", "value": "≥ 80", "unit": "%"}, {"measurement": "pest or weed control at 200 ppm", "setting": "[4]", "value": "≥ 80", "unit": "%"}, {"measurement": "inhibition of growth at 20 ppm", "setting": "[5]", "value": "≥ 80", "unit": "%"}, {"measurement": "inhibition of growth at 200 ppm", "setting": "Fusarium culmorum [6]", "value": "≥ 80", "unit": "%"}, {"measurement": "inhibition of growth at 200 ppm", "setting": "[7]", "value": "≥ 80", "unit": "%"}]}
{"compound": "C=C(Cl)C[C@](C)(Cc1ccccc1)NC(=O)c1cnc2c(F)cccc2c1", "note": "[Compound F-35]", "values": [{"measurement": "pest or weed control at 200 ppm", "setting": "Fusarium culmorum [1]", "value": "≥ 80", "unit": "%"}, {"measurement": "inhibition of growth at 200 ppm", "setting": "[2]", "value": "≥ 80", "unit": "%"}, {"measurement": "inhibition of growth at 20 ppm", "setting": "Sclerotinia sclerotiorum", "value": "≥ 80", "unit": "%"}, {"measurement": "inhibition of growth at 20 ppm", "setting": "[3]", "value": "≥ 80", "unit": "%"}, {"measurement": "pest or weed control at 200 ppm", "setting": "[4]", "value": "≥ 80", "unit": "%"}, {"measurement": "inhibition of growth at 20 ppm", "setting": "[5]", "value": "≥ 80", "unit": "%"}, {"measurement": "inhibition of growth at 200 ppm", "setting": "Fusarium culmorum [6]", "value": "≥ 80", "unit": "%"}, {"measurement": "inhibition of growth at 200 ppm", "setting": "[7]", "value": "≥ 80", "unit": "%"}]}
{"compound": "CC1(C[C@](C)(Cc2ccccc2)NC(=O)c2cnc3c(F)cccc3c2)CC1", "note": "[Compound F-25, N-[(1R)-1-benzyl-1-methyl-2-(1-methylcyclopropyl)ethyl]-8-fluoro-quinoline-3-carboxamide]", "values": [{"measurement": "pest or weed control at 200 ppm", "setting": "Fusarium culmorum [1]", "value": "≥ 80", "unit": "%"}, {"measurement": "inhibition of growth at 200 ppm", "setting": "[2]", "value": "≥ 80", "unit": "%"}, {"measurement": "inhibition of growth at 20 ppm", "setting": "Sclerotinia sclerotiorum", "value": "≥ 80", "unit": "%"}, {"measurement": "inhibition of growth at 20 ppm", "setting": "[3]", "value": "≥ 80", "unit": "%"}, {"measurement": "pest or weed control at 200 ppm", "setting": "[4]", "value": "≥ 80", "unit": "%"}, {"measurement": "inhibition of growth at 200 ppm", "setting": "Fusarium culmorum [6]", "value": "≥ 80", "unit": "%"}, {"measurement": "inhibition of growth at 200 ppm", "setting": "[7]", "value": "≥ 80", "unit": "%"}]}
{"compound": "C[C@](Cc1cccc(F)c1)(CC(F)(F)F)NC(=O)c1cnc2c(F)cccc2c1", "note": "[Compound F-28, 8-fluoro-N-[(1S)-3,3,3-trifluoro-1-[(3-fluorophenyl)methyl]-1-methyl-propyl]quinoline-3-carboxamide]", "values": [{"measurement": "pest or weed control at 200 ppm", "setting": "Fusarium culmorum [1]", "value": "≥ 80", "unit": "%"}, {"measurement": "inhibition of growth at 200 ppm", "setting": "[2]", "value": "≥ 80", "unit": "%"}, {"measurement": "inhibition of growth at 20 ppm", "setting": "Sclerotinia sclerotiorum", "value": "≥ 80", "unit": "%"}, {"measurement": "inhibition of growth at 20 ppm", "setting": "[3]", "value": "≥ 80", "unit": "%"}, {"measurement": "pest or weed control at 200 ppm", "setting": "[4]", "value": "≥ 80", "unit": "%"}, {"measurement": "inhibition of growth at 200 ppm", "setting": "Fusarium culmorum [6]", "value": "≥ 80", "unit": "%"}, {"measurement": "inhibition of growth at 200 ppm", "setting": "[7]", "value": "≥ 80", "unit": "%"}]}
{"compound": "C[C@](Cc1ccccc1)(CC(F)(F)F)NC(=O)c1cnc2ccccc2c1", "note": "[Compound F-34, N-[(1S)-1-benzyl-3,3,3-trifluoro-1-methyl-propyl]quinoline-3-carboxamide]", "values": [{"measurement": "pest or weed control at 200 ppm", "setting": "Fusarium culmorum [1]", "value": "≥ 80", "unit": "%"}, {"measurement": "inhibition of growth at 200 ppm", "setting": "[2]", "value": "≥ 80", "unit": "%"}, {"measurement": "inhibition of growth at 20 ppm", "setting": "Sclerotinia sclerotiorum", "value": "≥ 80", "unit": "%"}, {"measurement": "inhibition of growth at 20 ppm", "setting": "[3]", "value": "≥ 80", "unit": "%"}, {"measurement": "pest or weed control at 200 ppm", "setting": "[4]", "value": "≥ 80", "unit": "%"}, {"measurement": "inhibition of growth at 20 ppm", "setting": "[5]", "value": "≥ 80", "unit": "%"}, {"measurement": "inhibition of growth at 200 ppm", "setting": "Fusarium culmorum [6]", "value": "≥ 80", "unit": "%"}, {"measurement": "inhibition of growth at 200 ppm", "setting": "[7]", "value": "≥ 80", "unit": "%"}]}
{"compound": "C[C@](Cc1ccccc1)(CC1(F)CC1)NC(=O)c1cnc2c(F)cccc2c1", "note": "[Compound F-24, N-[(1S)-1-benzyl-2-(1-fluorocyclopropyl)-1-methyl-ethyl]-8-fluoro-quinoline-3-carboxamide]", "values": [{"measurement": "pest or weed control at 200 ppm", "setting": "Fusarium culmorum [1]", "value": "≥ 80", "unit": "%"}, {"measurement": "inhibition of growth at 200 ppm", "setting": "[2]", "value": "≥ 80", "unit": "%"}, {"measurement": "inhibition of growth at 20 ppm", "setting": "Sclerotinia sclerotiorum", "value": "≥ 80", "unit": "%"}, {"measurement": "inhibition of growth at 20 ppm", "setting": "[3]", "value": "≥ 80", "unit": "%"}, {"measurement": "pest or weed control at 200 ppm", "setting": "[4]", "value": "≥ 80", "unit": "%"}, {"measurement": "inhibition of growth at 20 ppm", "setting": "[5]", "value": "≥ 80", "unit": "%"}, {"measurement": "inhibition of growth at 200 ppm", "setting": "Fusarium culmorum [6]", "value": "≥ 80", "unit": "%"}, {"measurement": "inhibition of growth at 200 ppm", "setting": "[7]", "value": "≥ 80", "unit": "%"}]}
{"compound": "CC(Cc1ccccc1)(CC(F)(F)F)NC(=O)c1cnc2ccccc2c1", "note": "(stereo not shown) [X.020, N-(1-benzyl-3,3,3-trifluoro-1-methyl-propyl)quinoline-3-carboxamide]", "values": [{"measurement": "pest or weed control at 200 ppm", "setting": "Fusarium culmorum [1]", "value": "≥ 80", "unit": "%"}, {"measurement": "inhibition of growth at 200 ppm", "setting": "[2]", "value": "≥ 80", "unit": "%"}, {"measurement": "inhibition of growth at 20 ppm", "setting": "Sclerotinia sclerotiorum", "value": "≥ 80", "unit": "%"}, {"measurement": "melting point", "value": "130 to 132", "unit": "°C"}, {"measurement": "inhibition of growth at 20 ppm", "setting": "[3]", "value": "≥ 80", "unit": "%"}, {"measurement": "pest or weed control at 200 ppm", "setting": "[4]", "value": "≥ 80", "unit": "%"}, {"measurement": "inhibition of growth at 200 ppm", "setting": "Fusarium culmorum [6]", "value": "≥ 80", "unit": "%"}, {"measurement": "inhibition of growth at 200 ppm", "setting": "[7]", "value": "≥ 80", "unit": "%"}]}
